From publication PMC4038613, “A New Class of Multimerization Selective Inhibitors of HIV-1 Integrase” (PLoS Pathogens, 2014)
Like-named read-outs stand apart in the source and are kept apart here.

Key:
IN-LEDGF/p75 [1] = biological target: T1, IN-LEDGF/p75 (Human immunodeficiency virus type 1 group M subtype B, UniProt P12497); assay: HTRF-based IN-LEDGF/p75 binding assay; design: species or system HIV-1
Method: HTRF-based IN multimerization and IN-LEDGF/p75 binding assays were carried out as described previously [33].

HIV-1NL4-3 [2] = assay: microbe, parasite or virus in culture; type: cell-based; conditions: for Selectivity Index, CC50/IC50: CC50 for cytotoxicity by IC50 for antiviral activity
in vitro = type: cell-based
Method: The cytotoxcity assays were performed as described previously. The fitted dose-response curves were generated to calculate EC50 or CC50 using Origin software (OriginLab, Inc.).

HIV-1 IN [3] = biological target: T2, HIV-1 IN (Human immunodeficiency virus type 1 group M subtype B, UniProt P12497); conditions: IC50 for inhibiting IN-LEDGF/p75 binding divided by EC50 for aberrant IN multimerization; fold
Method: (§1) HTRF-based IN multimerization and IN-LEDGF/p75 binding assays were carried out as described previously [33]. The HTRF signal was recorded using a Perkin Elmer Multimode EnSpire plate reader.

HIV-1 IN [4] = biological target: T2, HIV-1 IN; assay: biochemical
Method: as §1

HIV-1 [5] = assay: Antiviral assay, late stage (inhibitor added to producer cells); type: cell-based; conditions: Human immunodeficiency virus 1, virions prepared in presence of inhibitor, untreated target cells; called IC50
Method: Results represent mean ± SD from three independent experiments.
For late stage experiments, the progeny virions were prepared in the presence of the indicated concentrations of the test inhibitor or diluent control (DMSO) and were then used to infect untreated target cells.

[6] = tested on: VSV-G pseudotyped HIV-1-Luc in PSIP1 KO HEK293T cells; assay: microbe, parasite or virus in culture; type: cell-based
[7] = tested on: LEDGF/p75-dependent HIV-1 integration; assay: HIV-1 integration site distribution (ligation-mediated PCR, 454-pyrosequencing); type: cell-based
HIV-1 expression = type: cell-based; conditions: for inhibition of HIV-1 expression: target cells
HIV-1NL4-3 [8] = conditions: cited from earlier work
HIV-1 [9] = tested on: HIV-1; design: method as in PMID 24040198; conditions: ref 41; read-out: IC50 in target cells; cited from earlier work
A128T IN HIV-1NL4-3 = assay: A128T HIV-1 infectivity in TZM-bl cells; type: cell-based; conditions: particles produced in presence of inhibitor
IN-LEDGF/p75 [10] = biological target: T1, IN-LEDGF/p75; design: method as in PMID 22437836; conditions: HTRF; read-out: IC50 for IN-LEDGF/75 binding; cited from earlier work
HIV-1 IN [11] = biological target: T2, HIV-1 IN; design: DLS analysis of KF116-induced multimerization of recombinant IN; method as in PMID 22437836; conditions: HTRF; read-out: EC50 for aberrant IN multimerization; cited from earlier work
[12] = tested on: VSV-G pseudotyped HIV-1-Luc; type: cell-based
[13] = biological target: the molecule itself; assay: AlphaScreen or HTRF; HTRF-based IN multimerization assay in vitro, compound (KF115 or KF116) titrated; carried out as described in ref. 33
[14] = biological target: the molecule itself; assay: cross-linking; concentrated, detergent-lysed virions (50 ng p24) from HEK293T cells treated with DMSO or 1 µM KF116; 50 µM BS3; SDS-PAGE and immunoblot with HIV-1 IN antibody
[15] = Target, 5 µM, *** P<0.001 vs DMSO
[16] = target cells, 10 µM, *** P<0.001 vs DMSO
[17] = ref 33, 41, read-out: antiviral activity IC50

## Cc1ccc(-c2nc(C)c(C(OC(C)(C)C)C(=O)O)c(-c3ccc(Cl)cc3)c2C)cc1C (stereo not drawn) [KF115]
IN-LEDGF/p75 [1]
  IC50: 13 ± 1.5 µM
HIV-1NL4-3 [2]
  Selectivity Index, CC50/IC50: >826
HIV-1NL4-3 [2]; Human immunodeficiency virus 1, read-out: Antiviral activity (IC50), HIV-1NL4-3, full replication cycle
  IC50: ~121 nM
In vitro
  CC50: > 100 µM
HIV-1 IN [3]
  Selectivity ratio, IC50 IN-LEDGF/EC50 aberrant IN multimerization: 47.4
HIV-1 IN [4]
  EC50: 274 ± 25 nM

## Cc1nc2ccccc2c(-c2cc(F)c3c(c2C)CCCO3)c1[C@H](OC(C)(C)C)C(=O)O [GS-B, reference compound]
HIV-1 [5]
  EC50: 39 nM
[6]
  effect of complete loss of LEDGF/p75 protein in virus-producer cells on IC50 values: did not alter
[7]; Producer, 100 nM
  % in RefSeq (HIV-1 integration frequency): 84.00%
  % in known genes (HIV-1 integration frequency): 85.71%
[7]; [15]
  % in RefSeq (HIV-1 integration frequency): 73.83%
  % in known genes (HIV-1 integration frequency): 75.74%
[7]; [16]
  % in RefSeq (HIV-1 integration frequency): 74.76%
  % in known genes (HIV-1 integration frequency): 77.39%
HIV-1 expression; 5 µM
  inhibition of HIV-1 expression: ~71%
HIV-1 expression; 10 µM
  inhibition of HIV-1 expression: ~88%
HIV-1 expression; virus-producer cells treated with 0.1 µM
  reduction in target cell HIV-1 expression: ~77%
HIV-1NL4-3 [8]; [17]
  IC50: ~0.026 µM
HIV-1NL4-3 [8]; same value given in b14 with ref 33, 41, read-out: EC50 for full replication cycle
  EC50: ~26 nM
HIV-1 [9]
  IC50: ~700 nM

## COC(C(=O)O)c1c(C)nc2ccc(Br)cc2c1-c1ccc(Cl)cc1 (stereo not drawn) [BI-1001, reference compound]
HIV-1NL4-3 [2]
  Selectivity Index, CC50/IC50: >17
In vitro
  CC50: > 100 µM
A128T IN HIV-1NL4-3
  A128T IN HIV-1NL4-3 replication in infected cells: marked resistance
HIV-1 IN [3]
  Selectivity ratio, IC50 IN-LEDGF/EC50 aberrant IN multimerization: 0.2
IN-LEDGF/p75 [10]
  IC50: 1000 ± 100 nM
HIV-1NL4-3 [8]; [17]
  IC50: ~5.8 µM
HIV-1NL4-3 [8]; ref 33, read-out: Antiviral activity (IC50)
  IC50: 5.8 ± 0.1 µM
HIV-1 IN [11]
  EC50: 4.9 ± 0.3 µM

## Cc1nnc(C(=O)NC(C)(C)c2nc(C(=O)NCc3ccc(F)cc3)c(O)c(=O)n2C)o1 [RAL, Raltegravir, reference compound]
[12]
  effect on replication intermediates in target cells of virions produced in presence of inhibitor: no inhibitory effects
  effect on replication intermediates when inhibitor added to target cells: selectively inhibited the integration step and increased the levels of 2-LTRs

B1: HIV-1 integrase (recombinant IN) (enzyme)
chain: FLDGIDKAQEEHEKYHSNWRAMASDFNLPPVVAKEIVASCDKCQLKGEAMHGQVDCSPGIWQLDCTHLEGKVILVAVHVASGYIEAEVIPAETGQETAYFLLKLAGRWPVKTVHTDNGSNFTSTTVKAACWWAGIKQEFGIPYNPQSQGVIESMNKELKKIIGQVRDQAEHLKTAVQMAVFIHNFKRKGGIGGYSAGERIVDIIATDIQTKELQKQITKIQNFRVYYRDSRDPVWKGPAKLLWKGEGAVVIQDNSDIKVVPRRKAKIIRDYGKQMAGDDCVASRQDED
notes: also called WT IN; source: recombinant
[13]
  EC50 of KF115 for aberrant IN multimerization (with KF115): 0.274 µM
  EC50 of KF116 for aberrant IN multimerization (with KF116): 0.086 µM

B2: HIV-1 integrase in virus particles (enzyme)
chain: B1 chain
notes: also called virion-associated IN
[14]
  stoichiometry N: 2
